Source: patent US4298727A, “3',4'-Dideoxykanamycin A and 1-N-(S)-α-hydroxy-ω-aminoalkanoyl) derivatives thereof” (Zaidan Hojin Biseibutsu Kagaku KenkyuKai, priority 1979, dated 1981)
Values after ≈ are worked out from the molar mass of the structure shown. Read-outs that look alike come from different tables or passages of the source.

Tests used:
[1] = tested on: Staphylococcus aureus 209P; test: MIC, standard serial dilution on nutrient agar; assay type: cell-based
[2] = tested on: Staphylococcus aureus APOI; test: MIC, standard serial dilution on nutrient agar; assay type: cell-based
[3] = tested on: Staphylococcus aureus MS 9610; test: MIC, standard serial dilution on nutrient agar; assay type: cell-based
[4] = tested on: Staphylococcus aureus MS 9883; test: MIC, standard serial dilution on nutrient agar; assay type: cell-based
[5] = tested on: Staphylococcus epidermides 109; test: MIC, standard serial dilution on nutrient agar; assay type: cell-based
Sarcina lutea PCI 1001 = test: MIC, standard serial dilution on nutrient agar; assay type: cell-based; settings: Micrococcus luteus
[6] = tested on: Klebsiella pneumoniae 22 #3038; test: MIC, standard serial dilution on nutrient agar; assay type: cell-based
Escherichia coli K-12 = test: MIC, standard serial dilution on nutrient agar; assay type: cell-based; settings: K12, 37° C., 18 hours
[7] = tested on: Escherichia coli K-12 ML 1629; test: MIC, standard serial dilution on nutrient agar; assay type: cell-based; settings: K12ML1629, 37° C., 18 hours
[8] = tested on: Pseudomonas aeruginosa A3; test: MIC, standard serial dilution on nutrient agar; assay type: cell-based
Klebsiella THO = test: MIC, standard serial dilution on nutrient agar; assay type: cell-based; settings: Klebsiella, 18 h
Klebsiella HOU = test: MIC, standard serial dilution on nutrient agar; assay type: cell-based
Klebsiella BRIA = test: MIC, standard serial dilution on nutrient agar; assay type: cell-based
Serratia CAT = test: MIC, standard serial dilution on nutrient agar; assay type: cell-based
Serratia BOT = test: MIC, standard serial dilution on nutrient agar; assay type: cell-based
Serratia 7 = test: MIC, standard serial dilution on nutrient agar; assay type: cell-based
Providencia 19 = test: MIC, standard serial dilution on nutrient agar; assay type: cell-based
Providencia ZAO = test: MIC, standard serial dilution on nutrient agar; assay type: cell-based
Providencia Pv 37 = test: MIC, standard serial dilution on nutrient agar; assay type: cell-based; settings: PV37, 37° C., 18 hours
Proteus vulgaris BAC = test: MIC, standard serial dilution on nutrient agar; assay type: cell-based
Proteus rettgeri AUB = test: MIC, standard serial dilution on nutrient agar; assay type: cell-based; settings: Providencia rettgeri
Enterobacter 666 = test: MIC, standard serial dilution on nutrient agar; assay type: cell-based; settings: 37° C., 18 hours
Enterobacter HAU = test: MIC, standard serial dilution on nutrient agar; assay type: cell-based
Erwinia 7-22 = test: MIC, standard serial dilution on nutrient agar; assay type: cell-based; settings: 722, 37° C., 18 hours
Pyocyanique = test: MIC, standard serial dilution on nutrient agar; assay type: cell-based
resistant bacteria = settings: in words, from Table 1
Protocol: The minimum inhibitory concentrations (mcg/ml) of the new compounds of this invention against various microorganisms were determined according to a standard serial dilution method using nutrient agar incubation medium at 37° C., the estimation being made after 18 hours incubation. For comparison purpose, the MIC. of kanamycin A, amikacin and dibekacin was also determined under the same test conditions.

[9] = Staphylococcus aureus, 209P, 18 h
[10] = Staphylococcus aureus, MS9610, 18 h
[11] = Staphylococcus aureus, MS9883, 18 h
[12] = Pseudomonas aeruginosa, A3, 18 h
[13] = MS9883, Staphylococcus aureus MS 9883, nutrient agar, 37° C., 18 hours, read-out: MIC.
[14] = Klebsiella pneumoniae 22 #3038, nutrient agar, 37° C., 18 hours, read-out: MIC.
[15] = Pseudomonas aeruginosa A3, nutrient agar, 37° C., 18 hours, read-out: MIC.
[16] = Klebsiella HOU, nutrient agar, 37° C., 18 hours, read-out: MIC.
[17] = Enterobacter HAU, nutrient agar, 37° C., 18 hours, read-out: MIC.
[18] = Staphylococcus aureus 209P, nutrient agar, 37° C., 18 hours, read-out: MIC.
[19] = Serratia CAT, nutrient agar, 37° C., 18 hours, read-out: MIC.
[20] = Providencia ZAO, nutrient agar, 37° C., 18 hours, read-out: MIC.
[21] = Proteus vulgaris BAC, nutrient agar, 37° C., 18 hours, read-out: MIC.

Row | Compound | MIC [1, 9] [µg/mL] | MIC ([2]; Staphylococcus aureus, 18 h) [µg/mL] | MIC [3, 10] [µg/mL] | MIC [4, 11] [µg/mL] | MIC ([5]; Staphylococcus, 109, 18 h) [µg/mL] | MIC (Sarcina lutea PCI 1001; PCI1001, 18 h) [µg/mL] | MIC ([6]; Klebsiella pneumoniae, 18 h) [µg/mL] | MIC (Escherichia coli K-12) [µg/mL] | MIC [7] [µg/mL] | MIC [8, 12] [µg/mL] | MIC (Klebsiella THO) [µg/mL] | MIC (Klebsiella BRIA; Klebsiella, 18 h) [µg/mL] | MIC (Serratia BOT; Serratia, 18 h) [µg/mL] | MIC (Serratia 7; Serratia, 7, 18 h) [µg/mL] | MIC (Providencia 19; Providencia, 19, 18 h) [µg/mL] | MIC (Providencia Pv 37) [µg/mL] | MIC (Proteus rettgeri AUB; 18 h) [µg/mL] | MIC (Enterobacter 666) [µg/mL] | MIC (Erwinia 7-22) [µg/mL] | MIC (Pyocyanique; 18 h) [µg/mL] | also measured
1 | NCC1OC(OC2C(N)CC(N)C(OC3OC(CO)C(O)C(N)C3O)C2O)C(O)C(O)C1O (stereo not drawn) [Kanamycin A] | 3.12 (≈ 6.44 µM) | 12.5 (≈ 25.8 µM) | 6.25 (≈ 12.9 µM) | 6.25 (≈ 12.9 µM) | 25 (≈ 51.6 µM) | 12.5 (≈ 25.8 µM) | > 100 | 3.12 (≈ 6.44 µM) | > 100 | 25 (≈ 51.6 µM) | > 100 | > 100 | 6.25 (≈ 12.9 µM) | > 100 | > 100 | > 100 | > 100 | > 100 | > 100 | 50 (≈ 103 µM) | MIC (Klebsiella HOU; Klebsiella, 18 h): > 100 µg/mL; MIC (Serratia CAT; Serratia, 18 h): > 100 µg/mL; MIC (Providencia ZAO; Providencia, 18 h): > 100 µg/mL; MIC (Proteus vulgaris BAC; Proteus vulgaris, 18 h): > 100 µg/mL; MIC (Enterobacter HAU; Enterobacter, 18 h): > 100 µg/mL
2 | NCCC(O)C(=O)NC1CC(N)C(OC2OC(CN)CCC2O)C(O)C1OC1OC(CO)C(O)C(N)C1O [Compound No. 2, 1-N-((S)-2-hydroxy-4-aminobutyryl)-3',4'-dideoxykanamycin A] | 1.56 (≈ 2.82 µM) | 0.78 (≈ 1.41 µM) | 1.56 (≈ 2.82 µM) | – | 0.78 (≈ 1.41 µM) | – | – | 1.56 (≈ 2.82 µM) | 1.56 (≈ 2.82 µM) | – | 1.56 (≈ 2.82 µM) | 1.56 (≈ 2.82 µM) | 6.25 (≈ 11.3 µM) | – | – | 6.25 (≈ 11.3 µM) | – | 0.78 (≈ 1.41 µM) | 0.78 (≈ 1.41 µM) | – | MIC [4, 13]: 3.12 µg/mL (≈ 5.64 µM); MIC (Sarcina lutea PCI 1001; PCI1001, Sarcina lutea PCI 1001, nutrient agar, 37° C., 18 hours, read-out: MIC.): 3.12 µg/mL (≈ 5.64 µM); MIC [6, 14]: 3.12 µg/mL (≈ 5.64 µM); MIC [8, 15]: 3.12 µg/mL (≈ 5.64 µM); MIC (Klebsiella HOU; [16]): 3.12 µg/mL (≈ 5.64 µM); MIC (Serratia CAT; Serratia, 18 h): 6.25 µg/mL (≈ 11.3 µM); MIC (Serratia 7; Serratia 7, nutrient agar, 37° C., 18 hours, read-out: MIC.): 3.12 µg/mL (≈ 5.64 µM); MIC (Providencia 19; Providencia 19, nutrient agar, 37° C., 18 hours, read-out: MIC.): 3.12 µg/mL (≈ 5.64 µM); MIC (Providencia ZAO; Providencia, 18 h): 6.25 µg/mL (≈ 11.3 µM); MIC (Proteus vulgaris BAC; Proteus vulgaris, 18 h): 1.56 µg/mL (≈ 2.82 µM); MIC (Proteus rettgeri AUB; Proteus rettgeri AUB, nutrient agar, 37° C., 18 hours, read-out: MIC.): 3.12 µg/mL (≈ 5.64 µM); MIC (Enterobacter HAU; [17]): 12.5 µg/mL (≈ 22.6 µM); MIC (Pyocyanique; Pyocyanique, nutrient agar, 37° C., 18 hours, read-out: MIC.): 12.5 µg/mL (≈ 22.6 µM); antibacterial activity against various resistant bacteria (resistant bacteria): higher antibacterial activity against the various resistant bacteria than amikacin
3 | NCC1CCC(O)C(OC2C(N)CC(N)C(OC3OC(CO)C(O)C(N)C3O)C2O)O1 (stereo not drawn) [Compound No. 1, 3',4'-dideoxykanamycin A] | – | – | 6.25 (≈ 13.8 µM) | 6.25 (≈ 13.8 µM) | 6.25 (≈ 13.8 µM) | 12.5 (≈ 27.6 µM) | > 100 | 6.25 (≈ 13.8 µM) | 6.25 (≈ 13.8 µM) | 6.25 (≈ 13.8 µM) | 6.25 (≈ 13.8 µM) | > 100 | 50 (≈ 110 µM) | > 100 | 100 (≈ 221 µM) | > 100 | > 100 | 100 (≈ 221 µM) | > 100 | > 100 | MIC [1, 18]: 3.12 µg/mL (≈ 6.89 µM); MIC ([2]; Staphylococcus aureus APOI, nutrient agar, 37° C., 18 hours, read-out: MIC.): 3.12 µg/mL (≈ 6.89 µM); MIC (Klebsiella HOU; Klebsiella, 18 h): > 100 µg/mL; MIC (Serratia CAT; [19]): 12.5 µg/mL (≈ 27.6 µM); MIC (Providencia ZAO; [20]): 12.5 µg/mL (≈ 27.6 µM); MIC (Proteus vulgaris BAC; [21]): 3.12 µg/mL (≈ 6.89 µM); MIC (Enterobacter HAU; [17]): 12.5 µg/mL (≈ 27.6 µM); antibacterial activity against various resistant bacteria (resistant bacteria): remarkably higher antibacterial activity against various resistant bacteria than the parent kanamycin A
4 | NCC1CCC(O)C(OC2C(N)CC(NC(=O)C(O)CN)C(OC3OC(CO)C(O)C(N)C3O)C2O)O1 (racemic) [Compound No. 3, 1-N-(DL-2-hydroxy-3-aminopropionyl)-3',4'-dideoxykanamycin A] | – | 1.56 (≈ 2.89 µM) | – | – | – | 6.25 (≈ 11.6 µM) | – | 1.56 (≈ 2.89 µM) | 1.56 (≈ 2.89 µM) | – | 1.56 (≈ 2.89 µM) | – | – | 6.25 (≈ 11.6 µM) | 6.25 (≈ 11.6 µM) | 6.25 (≈ 11.6 µM) | 6.25 (≈ 11.6 µM) | 1.56 (≈ 2.89 µM) | 1.56 (≈ 2.89 µM) | 50 (≈ 92.7 µM) | MIC [1, 18]: 3.12 µg/mL (≈ 5.78 µM); MIC ([3]; MS9610, Staphylococcus aureus MS 9610, nutrient agar, 37° C., 18 hours, read-out: MIC.): 3.12 µg/mL (≈ 5.78 µM); MIC [4, 13]: 3.12 µg/mL (≈ 5.78 µM); MIC ([5]; Staphylococcus epidermides 109, nutrient agar, 37° C., 18 hours, read-out: MIC.): 3.12 µg/mL (≈ 5.78 µM); MIC [6, 14]: 3.12 µg/mL (≈ 5.78 µM); MIC [8, 15]: 3.12 µg/mL (≈ 5.78 µM); MIC (Klebsiella HOU; [16]): 3.12 µg/mL (≈ 5.78 µM); MIC (Klebsiella BRIA; Klebsiella BRIA, nutrient agar, 37° C., 18 hours, read-out: MIC.): 3.12 µg/mL (≈ 5.78 µM); MIC (Serratia CAT; [19]): 12.5 µg/mL (≈ 23.2 µM); MIC (Serratia BOT; Serratia BOT, nutrient agar, 37° C., 18 hours, read-out: MIC.): 12.5 µg/mL (≈ 23.2 µM); MIC (Providencia ZAO; [20]): 12.5 µg/mL (≈ 23.2 µM); MIC (Proteus vulgaris BAC; [21]): 3.12 µg/mL (≈ 5.78 µM); MIC (Enterobacter HAU; Enterobacter, 18 h): 25 µg/mL (≈ 46.3 µM)
